Biological target: T1, hCXCR2 (Homo sapiens, UniProt P25025)
T1 construct: purchased Biosignal; host or cells: CHO cells overexpressing hCXCR2 (membrane preparation)
T1 sequence (P25025 1-360): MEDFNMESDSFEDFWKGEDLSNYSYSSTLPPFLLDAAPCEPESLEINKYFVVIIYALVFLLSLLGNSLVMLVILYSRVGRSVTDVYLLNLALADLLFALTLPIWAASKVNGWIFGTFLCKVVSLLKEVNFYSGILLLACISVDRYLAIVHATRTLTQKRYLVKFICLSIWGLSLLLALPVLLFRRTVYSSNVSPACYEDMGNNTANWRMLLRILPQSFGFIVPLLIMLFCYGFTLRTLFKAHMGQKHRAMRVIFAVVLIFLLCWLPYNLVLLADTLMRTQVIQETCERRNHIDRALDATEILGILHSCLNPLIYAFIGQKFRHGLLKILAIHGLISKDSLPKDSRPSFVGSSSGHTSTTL
Experiment: CXCR2 SPA receptor binding assay
Conditions: hCXCR2-CHO overexpressing membranes, [125I]-IL-8 ligand 0.1 nM
Experimental: For each well of a 96 well plate, a reaction mixture of 4 μg hCXCR2-CHO overexpressing membranes (Biosignal) and 200 μg/well WGA-SPA beads (Amersham) in 100 μl was prepared in CXCR2 assay buffer (25 mM HEPES, pH 7.4, 2 mM CaCl2, 1 mM MgCl2). A 0.4 nM stock of ligand, [125I]-IL-8 (NEN), was prepared in the CXCR2 assay buffer. […] stock solutions of test compounds were prepared in DMSO (Sigma). A 6× stock solution of GRO-α (R&D) was prepared in CXCR2 assay buffer. The above solutions were added to a 96-well assay plate (PerkinElmer or Coming) as follows: 10 μl test compound or DMSO, 40 ul CXCR2 assay buffer or GRO-α stock, 100 μl of reaction mixture, 50 μl of ligand stock (Final [Ligand]=0.1 nM). When 40× stock solutions of test compounds in DMSO were prepared, then the above protocol was used except instead 5 μl test compound or DMSO and 45 μl CXCR2 assay buffer were used. The assay plates were shaken for 5 minutes on a plate shaker, then incubated for 2-8 hours before cpm/well were determined in Microbeta Trilux counter (PerkinElmer). % Inhibition of total binding minus non-specific binding (250 nM Gro-α or 50 μM antagonist) was determined and IC50 values calculated.

| SMILES | IC50 |
| --- | --- |
| O=C(c1cccc(Nc2c(Nc3ccccc3)c(=O)c2=O)c1O)N1CCOCC1 [Example 45] | 10 nM |
| CC(C)c1ccccc1Nc1c(Nc2cccc(C(=O)N(C)C)c2O)c(=O)c1=O [Example 64] | 28 nM |

Source: patent publication US20040235908A1, “3,4-Di-substituted cyclobutene-1,2-diones as CXC-chemokine receptor antagonists” (Schering Corporation, priority 2001, published 2004)
